We go through 38 molecules from patent publication US7902252B2, “Inhibitors of D-amino acid oxidase” (Sepracor, Inc., priority 2007, dated 2011).

Chain of Human DAAO (P14920 whole entry): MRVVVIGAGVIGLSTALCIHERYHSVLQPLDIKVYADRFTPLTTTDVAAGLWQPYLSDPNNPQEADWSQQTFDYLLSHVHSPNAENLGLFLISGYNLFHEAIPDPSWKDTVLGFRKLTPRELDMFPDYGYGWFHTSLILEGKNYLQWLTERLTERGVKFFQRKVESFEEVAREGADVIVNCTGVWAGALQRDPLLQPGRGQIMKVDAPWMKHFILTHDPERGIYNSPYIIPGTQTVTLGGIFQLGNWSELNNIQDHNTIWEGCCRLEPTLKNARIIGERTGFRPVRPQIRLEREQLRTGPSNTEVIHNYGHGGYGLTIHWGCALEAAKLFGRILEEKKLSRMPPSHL

For the test, the target named is Human DAAO (Homo sapiens, UniProt P14920). The test can be described thus: D-Amino Acid Oxidase enzyme assay (D-serine, horseradish peroxidase/Amplex Red coupled fluorescence). The test is classed as biochemical. To be noted: D-serine 5 mM, pH 7.4. As to the method:
DAAO enzyme activity was measured using the substrate D-serine at its Michaelis-Menton Km of 5 mM. The rate of oxidation is measured as a rate of production of hydrogen peroxide, which was detected using the enzyme horseradish peroxidase (Sigma cat. No. P-8375). This coupled reaction uses the enzyme substrate Amplex Red (Molecular Probes), which is converted to the fluorescent reaction product, resorufin (excitation 530-560 nm; emission ˜590 nm). Although DAAO has a higher pH optimum, all reagents were prepared in 50 mM sodium phosphate buffer at pH 7.4 and inhibition curves were generated at this pH.
The final concentrations of components in 200 μl total volume per well (black clear-bottom 96-well plate, Costar) were:
(a) Horseradish peroxidase: 4 Units per mL
(d) Amplex Red reagent: 50 uM
The reactions were initiated by addition of DAAO enzyme and the fluorescence was monitored. H2O2 was added at 16 uM final concentration to a control well on each plate to test for compound interference with a coupled enzyme. Inhibition curves were generated in the presence of varying concentrations of the inhibitor and IC50 values were calculated for each inhibitor.
With `Cc1ccc(CC2CCc3[nH]c(C(=O)O)cc32)cc1C` (centres unmarked) [Compound 71, 4-(3,4-dimethylbenzyl)-1,4,5,6-tetrahydrocyclopenta[b]pyrrole-2-carboxylic acid], the half-inhibitory concentration (IC50) – broadly, the concentration at which inhibition is half-maximal – was at most 1 µM. The value for `O=C(O)c1cc2c([nH]1)CCC2Cc1cccc(-c2ccc(C(F)(F)F)cc2)c1` (centres unmarked) [Compound 84, 4-((4′-(trifluoromethyl)biphenyl-3-yl)methyl)-1,4,5,6-tetrahydrocyclopenta[b]pyrrole-2-carboxylic acid] was at most 1 µM. The value for `O=C(O)c1cc2c([nH]1)CCC2Cc1ccc(Cl)cc1` (single isomer, unassigned) [Compound 16, 4-(4-chlorobenzyl)-1,4,5,6-tetrahydrocyclopenta[b]pyrrole-2-carboxylic acid] was at most 100 µM; that for `O=C(O)c1cc2c([nH]1)CCC2Cc1ccc(F)c(Cl)c1` (racemic) [Compound 48, 4-(3-chloro-4-fluorobenzyl)-1,4,5,6-tetrahydrocyclopenta[b]pyrrole-2-carboxylic acid] was at most 0.1 µM; that for `O=C(O)c1cc2c([nH]1)CCC2Cc1ccc(F)c(F)c1` (racemic) [Compound 42, 4-(3,4-difluorobenzyl)-1,4,5,6-tetrahydrocyclopenta[b]pyrrole-2-carboxylic acid] was at most 0.1 µM. The value for `O=C(O)c1cc2c([nH]1)C(c1ccc(-c3ccccc3)cc1)CC2` (single isomer, unassigned) [Compound 120, 6-(biphenyl-4-yl)-1,4,5,6-tetrahydrocyclopenta[b]pyrrole-2-carboxylic acid] was above 100 µM. The molecule `O=C(O)c1cc2c([nH]1)CCC2Cc1ccc(Br)cc1` (single isomer, unassigned) [Compound 61, 4-(4-bromobenzyl)-1,4,5,6-tetrahydrocyclopenta[b]pyrrole-2-carboxylic acid] displayed a half-maximal inhibitory concentration (IC50) of at most 100 µM. In the case of `O=C(O)c1cc2c([nH]1)CCC2c1cccc(Cl)c1` (centres unmarked) [Compound 102, 4-(3-chlorophenyl)-1,4,5,6-tetrahydrocyclopenta[b]pyrrole-2-carboxylic acid], the 50% inhibitory concentration (IC50) was at most 0.1 µM.

In the case of `CC1Cc2cc(C(=O)O)[nH]c2C1` (centres unmarked) [Compound 22, 5-methyl-1,4,5,6-tetrahydrocyclopenta[b]pyrrole-2-carboxylic acid], the IC50 is at most 1 µM. As for `N#Cc1cccc(C2CCc3cc(C(=O)O)[nH]c32)c1` (centres unmarked) [Compound 117, 6-(3-cyanophenyl)-1,4,5,6-tetrahydrocyclopenta[b]pyrrole-2-carboxylic acid], the IC50 is at most 1 µM. For `O=C(O)c1cc2c([nH]1)CCC2CCc1ccccc1` (racemic) [Compound 18, 4-phenethyl-1,4,5,6-tetrahydrocyclopenta[b]pyrrole-2-carboxylic acid], the IC50 is at most 1 µM. The figure for `COc1cccc(CC2CCc3cc(C(=O)O)[nH]c32)c1` (single isomer, unassigned) [Compound 130, 6-(3-methoxybenzyl)-1,4,5,6-tetrahydrocyclopenta[b]pyrrole-2-carboxylic acid] is at most 100 µM; for `O=C(O)c1cc2c([nH]1)C(Cc1cccc(Cl)c1)CC2` (racemic) [Compound 121, 6-(3-chlorobenzyl)-1,4,5,6-tetrahydrocyclopenta[b]pyrrole-2-carboxylic acid] it is at most 0.1 µM; for `O=C(O)c1cc2c([nH]1)CCC2Cc1ccc(F)cc1` (single isomer, unassigned) [Compound 41, 4-(4-fluorobenzyl)-1,4,5,6-tetrahydrocyclopenta[b]pyrrole-2-carboxylic acid] it is at most 1 µM. Molecule `O=C(O)c1cc2c([nH]1)C(CCCc1ccccc1)CC2` (single isomer, unassigned) [Compound 135, 6-(3-phenylpropyl)-1,4,5,6-tetrahydrocyclopenta[b]pyrrole-2-carboxylic acid] gave a concentration for half-maximal inhibition (IC50) of at most 100 µM.

`CC(C)c1ccc(CC2CCc3[nH]c(C(=O)O)cc32)cc1` (centres unmarked) [Compound 33, 4-(4-isopropylbenzyl)-1,4,5,6-tetrahydrocyclopenta[b]pyrrole-2-carboxylic acid] yielded a half-inhibitory concentration (IC50) of at most 1 µM.

`O=C(O)c1cc2c([nH]1)C(c1ccc(F)c(F)c1)CC2` (centres unmarked) [Compound 112, 6-(3,4-difluorophenyl)-1,4,5,6-tetrahydrocyclopenta[b]pyrrole-2-carboxylic acid] yielded a concentration for half-maximal inhibition (IC50) of at most 1 µM. The figure for `CC1CCc2cc(C(=O)O)[nH]c21` (centres unmarked) [Compound 109, 6-methyl-1,4,5,6-tetrahydrocyclopenta[b]pyrrole-2-carboxylic acid] is at most 1 µM; for `CC(C)(CC1CCc2[nH]c(C(=O)O)cc21)c1ccccc1` (centres unmarked) [Compound 35, 4-(2-methyl-2-phenylpropyl)-1,4,5,6-tetrahydrocyclopenta[b]pyrrole-2-carboxylic acid] it is at most 100 µM. The figure for `O=C(O)c1cc2c([nH]1)CCC2Cc1cc(F)cc(Cl)c1` (centres unmarked) [Compound 55, 4-(3-chloro-5-fluorobenzyl)-1,4,5,6-tetrahydrocyclopenta[b]pyrrole-2-carboxylic acid] is at most 0.1 µM; for `O=C(O)c1cc2c([nH]1)CCC2Cc1ccc(Cl)cc1` (single isomer, unassigned) [Compound 15, 4-(4-chlorobenzyl)-1,4,5,6-tetrahydrocyclopenta[b]pyrrole-2-carboxylic acid] it is at most 0.1 µM; for `O=C(O)c1cc2c([nH]1)C(c1ccc(Cl)cc1)CC2` (centres unmarked) [Compound 113, 6-(4-chlorophenyl)-1,4,5,6-tetrahydrocyclopenta[b]pyrrole-2-carboxylic acid] it is at most 1 µM. The figure for `C#Cc1cccc(CC2CCc3[nH]c(C(=O)O)cc32)c1` (centres unmarked) [Compound 74, 4-(3-ethynylbenzyl)-1,4,5,6-tetrahydrocyclopenta[b]pyrrole-2-carboxylic acid] is at most 0.1 µM; for `O=C(O)c1cc2c([nH]1)CCC2Cc1ccc(Cl)c(Cl)c1` (single isomer, unassigned) [Compound 58, 4-(3,4-dichlorobenzyl)-1,4,5,6-tetrahydrocyclopenta[b]pyrrole-2-carboxylic acid] it is at most 100 µM; for `O=C(O)c1[nH]c2c(c1Br)C(CCc1ccccc1)CC2` (centres unmarked) [Compound 147, 3-bromo-4-phenethyl-1,4,5,6-tetrahydrocyclopenta[b]pyrrole-2-carboxylic acid] it is at most 1 µM. The molecule `O=C(O)c1cc2c([nH]1)C[C@@H]1[C@H](CCc3ccccc3)[C@H]21` (racemic) [Compound 143, ±(1S,1aS,5aR)-1-phenethyl-1a,4,5,5a-tetrahydro-1H-4-aza-cyclopropa[α]pentalene-3-carboxylic acid] showed an IC50 of at most 0.1 µM. On to `O=C(O)c1cc2c([nH]1)CC(Cc1ccccc1)C2` (centres unmarked) [Compound 23, 5-benzyl-1,4,5,6-tetrahydrocyclopenta[b]pyrrole-2-carboxylic acid], for which the IC50 is at most 100 µM. The value for `COC1c2cc(C(=O)O)[nH]c2CC1(F)F` (centres unmarked) [Compound 148, 5,5-difluoro-4-methoxy-1,4,5,6-tetrahydrocyclopenta[b]pyrrole-2-carboxylic acid] was at most 100 µM. Take `COc1ccc(CCC2CCc3[nH]c(C(=O)O)cc32)cc1` (centres unmarked) [Compound 34, 4-(4-methoxyphenethyl)-1,4,5,6-tetrahydrocyclopenta[b]pyrrole-2-carboxylic acid]: the 50% inhibitory concentration (IC50) is at most 100 µM.

The molecule `O=C(O)c1cc2c([nH]1)CCC2Cc1cccc(-c2ccc(CO)cc2)c1` (centres unmarked) [Compound 86, 4-((4′-(hydroxymethyl)biphenyl-3-yl)methyl)-1,4,5,6-tetrahydrocyclopenta[b]pyrrole-2-carboxylic acid] yielded a half-inhibitory concentration (IC50) of at most 1 µM.

In turn, `O=C(O)c1cc2c([nH]1)C(CCc1ccccc1)CC2` (centres unmarked) [Compound 27, 6-phenethyl-1,4,5,6-tetrahydrocyclopenta[b]pyrrole-2-carboxylic acid] showed an IC50 of at most 1 µM. The value for `O=C(O)c1cc2c([nH]1)CCC2Cc1ccc(F)c(F)c1` (single isomer, unassigned) [Compound 43, 4-(3,4-difluorobenzyl)-1,4,5,6-tetrahydrocyclopenta[b]pyrrole-2-carboxylic acid] was at most 100 µM; that for `O=C(O)c1cc2c([nH]1)CCC2Cc1cccc(-c2ccc[nH]2)c1` (single isomer, unassigned) [Compound 92, 4-(3-(1H-pyrrol-2-yl)benzyl)-1,4,5,6-tetrahydrocyclopenta[b]pyrrole-2-carboxylic acid] was at most 100 µM. `CC(C)(C)c1c(C(=O)O)[nH]c2c1C(=O)CC2` [Compound 3, 3-tert-butyl-4-oxo-1,4,5,6-tetrahydrocyclopenta[b]pyrrole-2-carboxylic acid] returned an IC50 above 100 µM. The value for `O=C(O)c1cc2c([nH]1)C(Cc1ccc(-c3ccccc3)cc1)CC2` (centres unmarked) [Compound 133, 6-(biphenyl-4-ylmethyl)-1,4,5,6-tetrahydrocyclopenta[b]pyrrole-2-carboxylic acid] was at most 1 µM; that for `O=C(O)c1cc2c([nH]1)CCC2=O` [Compound 2, 4-oxo-1,4,5,6-tetrahydrocyclopenta[b]pyrrole-2-carboxylic acid] was at most 100 µM.

For the molecule `O=C(O)c1cc2c([nH]1)CCC2Cc1cccc(-c2ccc[nH]2)c1` (racemic) [Compound 91, 4-(3-(1H-pyrrol-2-yl)benzyl)-1,4,5,6-tetrahydrocyclopenta[b]pyrrole-2-carboxylic acid], the IC50 was at most 0.1 µM. The figure for `O=C(O)c1cc2c([nH]1)C(Cc1cccc(Cl)c1)CC2` (single isomer, unassigned) [Compound 122, 6-(3-chlorobenzyl)-1,4,5,6-tetrahydrocyclopenta[b]pyrrole-2-carboxylic acid] is at most 1 µM.
